{"source": "patent US12582677B2", "about": "“Methods for producing retinal tissue and retina-related cell” (SUMITOMO CHEMICAL COMPANY, LIMITED, priority 2011, dated 2026)", "type_in_all_cases": "cell-based", "key": {"[1]": {"test_system": "human ES cell-derived retinal tissue after freeze-thawing", "test": "Treatment of human ES cell-derived retinal tissue after freeze-thawing with DAPT: GFP fluorescence, Recoverin and Brn3 immunostaining", "conditions": "tissue freeze-thawed day 33, 10 μM DAPT added day 38", "protocol": "RAX::GFP knock-in human ES cells (derived from KhES-1) were cultured according to the methods described in “Ueno, M. et al. PNAS 2006”, “Watanabe, K. et al. Nat Biotech 2007” and used for the experiment. As the medium, DMEM/F12 medium (Invitrogen) added with 20% KSR (Knockout Serum Replacement; Invitrogen), 0.1 mM 2-mercaptoethanol, 1 mM pyruvic acid, and 5 to 10 ng/ml bFGF was used. For the production of retinal tissue by floating culture, the ES cells were dispersed into single cells by using 0.25% trypsin-EDTA (Invitrogen), and floating-cultured in a serum-free medium (100 μl) at 37° C., 5% CO2 to 9×10^3 cells per well of a non-cell adhesive 96-well culture plate (SUMILON spheroid plate, SUMITOMO BAKELITE CO., LTD.). As the serum-free medium in this case, a serum-free medium obtained by adding 20% KSR, 0.1 mM 2-mercaptoethanol, 1 mM pyruvic acid, 20 μM Y27632 and a substance inhibiting the Wnt signal pathway (3 μM IWR1e) to G-MEM medium was used. […] Matrigel was added in an amount of 1/100 per volume from day 2 of the floating culture and floating culture was performed. Fetal calf serum in an amount of 1/10 per volume and a substance acting on the Shh signal pathway (100 nM SAG) were added on day 12 from the start of the floating culture and the floating culture was performed to produce a retinal tissue. The produced retinal tissue on day 33 from the start of the floating culture was freeze-thawed, and a Notch signal action inhibitory substance (10 μM DAPT) was added to the retinal tissue on day 38 from the start of the floating culture. […] The prepared frozen section was immunostained for Recoverin, which is one of the marker genes of photoreceptor, and Brn3, which is one of the marker genes of ganglion cells, and the results were compared between the presence and absence of DAPT-addition."}, "[2]": {"test_system": "Crx::GFP knock-in human ES cell-derived retinal tissue", "test": "Treatment of human ES cell-derived retinal tissue with DAPT: GFP fluorescence, Recoverin and Brn3 immunostaining", "conditions": "10 μM DAPT added day 29", "protocol": "CrX::GFP knock-in human ES cells (derived from KhES-1) were cultured according to the methods described in “Ueno, M. et al. PNAS 2006”, “Watanabe, K. et al. Nat Biotech 2007” and used for the experiment. As the medium, DMEM/F12 medium (Invitrogen) added with 20% KSR (Knockout Serum Replacement; Invitrogen), 0.1 mM 2-mercaptoethanol, 1 mM pyruvic acid, and 5 to 10 ng/ml bFGF was used. The ES cells were dispersed into single cells by using 0.25% trypsin-EDTA (Invitrogen), and floating-cultured in a serum-free medium (100 μl) at 37° C., 5% CO2 to 9×10^3 cells per well of a non-cell adhesive 96-well culture plate (SUMILON spheroid plate, SUMITOMO BAKELITE CO., LTD.). As the serum-free medium in this case, a serum-free medium obtained by adding 20% KSR, 0.1 mM 2-mercaptoethanol, 1 mM pyruvic acid, 20 μM Y27632 and a substance inhibiting the Wnt signal pathway (3 μM IWR1e) to G-MEM medium was used. Matrigel was added in an amount of 1/100 per volume from day 2 of the floating culture and floating culture was performed. Fetal calf serum in an amount of 1/10 per volume and a substance acting on the Shh signal pathway (100 nM SAG) were added on day 12 of floating culture and the floating culture was performed to produce a retinal tissue. A substance acting on the Notch signal (10 μM DAPT (gamma secretase activity inhibitor)) was added to the retinal tissue on day 29 from the start of the floating culture, observed with a fluorescence microscope on day 41 from the start of the floating culture (day 12 after the addition), and fixed with 4% para-formaldehyde on day 43 from the start of the floating culture (day 14 after the addition), and a frozen section was prepared. The prepared frozen section was immunostained for Recoverin, which is one of the marker genes of photoreceptor, and Brn3, which is one of the marker genes of ganglion cells, and the results were compared between the presence and absence of DAPT-addition."}, "[3]": {"test_system": "RAX::GFP knock-in human ES cells", "test": "Production of optic-cup-like structure from human ES cell aggregates", "conditions": "3 μM CHIR99021 and 100 nM SAG together in serum-containing medium from day 15", "protocol": "RAX::GFP knock-in human ES cells (derived from KhES-1) were cultured according to the methods described in “Ueno, M. et al. PNAS 2006”, “Watanabe, K. et al. Nat Biotech 2007” and used for the experiment. As the medium, DMEM/F12 medium (Invitrogen) added with 20% KSR (Knockout Serum Replacement; Invitrogen), 0.1 mM 2-mercaptoethanol, 1 mM pyruvic acid, and 5 to 10 ng/ml bFGF was used. For the formation of aggregate by floating culture, the ES cells were dispersed into single cells by using 0.25% trypsin-EDTA (Invitrogen), suspended in a serum-free medium (100 μl) to 9×10^3 cells per well of a non-cell adhesive 96-well culture plate (SUMILON spheroid plate, SUMITOMO BAKELITE CO., LTD.) to allow for rapid formation of aggregates, and floating cultured at 37° C., 5% CO2. As the serum-free medium in this case, a serum-free medium obtained by adding 20% KSR, 0.1 mM 2-mercaptoethanol, 1 mM pyruvic acid, 20 μM Y27632 and a substance inhibiting the Wnt signal pathway (3 μM IWR1e) to G-MEM medium was used. During the floating culture, Matrigel in an amount of 1/100 per volume was added from day 2 from the start of the floating culture. The floating aggregate was transferred to a serum-free medium without a substance inhibiting the Wnt signal pathway on day 12 from the start of the floating culture, fetal calf serum in an amount of 1/10 per volume was added and the aggregate was cultured. […]"}, "[4]": {"test_system": "RAX::GFP knock-in human ES cells", "test": "Production of retinal tissue from human ES cell aggregates: GFP-expressing (retinal progenitor) cells by fluorescence microscopy and FACS", "protocol": "RAX::GFP knock-in human ES cells (derived from KhES-1) were cultured according to the methods described in “Ueno, M. et al. PNAS 2006”, “Watanabe, K. et al. Nat Biotech 2007” and used for the experiment. As the medium, DMEM/F12 medium (Invitrogen) added with 20% KSR (Knockout Serum Replacement; Invitrogen), 0.1 mM 2-mercaptoethanol, 1 mM pyruvic acid, and 5 to 10 ng/ml bFGF was used. The ES cells were dispersed into single cells by using 0.25% trypsin-EDTA (Invitrogen), and floating-cultured in a serum-free medium (100 μl) at 37° C., 5% CO2 to 9×10^3 cells per well of a non-cell adhesive 96-well culture plate (SUMILON spheroid plate, SUMITOMO BAKELITE CO., LTD.). As the serum-free medium in this case, a serum-free medium obtained by adding 20% KSR, 0.1 mM 2-mercaptoethanol, 1 mM pyruvic acid and 20 μM Y27632 to G-MEM medium was used. During the floating culture, Matrigel in an amount of 1/100 per volume was added from day 2 from the start of the floating culture. Thereafter, fluorescence microscopic observation was regularly performed while continuing the floating culture.\nRAX::GFP knock-in human ES cells (derived from KhES-1) were cultured according to the methods described in “Ueno, M. et al. PNAS 2006”, “Watanabe, K. et al. Nat Biotech 2007” and used for the experiment. As the medium, DMEM/F12 medium (Invitrogen) added with 20% KSR (Knockout Serum Replacement; Invitrogen), 0.1 mM 2-mercaptoethanol, 1 mM pyruvic acid, and 5-10 ng/ml bFGF was used. For the production of retinal tissue by floating culture, the ES cells were dissociated into single cells by using 0.25% trypsin-EDTA (Invitrogen), and floating-cultured in a serum-free medium (100 μl) at 37° C., 5% CO2 to 9×10^3 cells per well of a non-cell adhesive 96-well culture plate (SUMILON spheroid plate, SUMITOMO BAKELITE CO., LTD.). As the serum-free medium in this case, a serum-free medium obtained by adding 20% KSR, 0.1 mM 2-mercaptoethanol, 1 mM pyruvic acid, 20 μM Y27632 and a substance inhibiting the Nodal signal pathway (10 μM SB431542) to G-MEM medium was used. During the floating culture, Matrigel in an amount of 1/100 per volume was added from day 2 from the start of the floating culture. Thereafter, the floating culture was continued and fluorescence microscopic observation and confirmation of the proportion of the GFP-expressing cells were performed by FACS on day 18 from the start of the floating culture.\nRAX::GFP knock-in human ES cells (derived from KhES-1) were cultured according to the methods described in “Ueno, M. et al. PNAS 2006”, “Watanabe, K. et al. Nat Biotech 2007” and used for the experiment. As the medium, DMEM/F12 medium (Invitrogen) added with 20% KSR (Knockout Serum Replacement; Invitrogen), 0.1 mM 2-mercaptoethanol, 1 mM pyruvic acid, and 5 to 10 ng/ml bFGF was used. For the production of retinal tissue by floating culture, the ES cells were dispersed into single cells by using 0.25% trypsin-EDTA (Invitrogen), and floating-cultured in a serum-free medium (100 μl) at 37° C., 5% CO2 to 9×10^3 cells per well of a non-cell adhesive 96-well culture plate (SUMILON spheroid plate, SUMITOMO BAKELITE CO., LTD.). As the serum-free medium in this case, a serum-free medium obtained by adding 20% KSR, 0.1 mM 2-mercaptoethanol, 1 mM pyruvic acid, 20 μM Y27632 and a substance inhibiting the Wnt signal pathway (3 μM IWR1e) to G-MEM medium was used. During the floating culture, Matrigel in an amount of 1/100 per volume was added from day 2 from the start of the floating culture. Thereafter, the floating culture was continued and fluorescence microscopic observation and confirmation of the proportion of the GFP-expressing cells were performed by FACS on day 18 from the start of the floating culture.\nRAX::GFP knock-in human ES cells (derived from KhES-1) were cultured according to the methods described in “Ueno, M. et al. PNAS 2006”, “Watanabe, K. et al. Nat Biotech 2007” and used for the experiment. […]"}, "[5]": {"conditions": "100 nM SAG and fetal calf serum 1/10 added day 12, with 3 μM IWR1e and Matrigel, day 18"}}}
{"compound": "C[C@H](NC(=O)Cc1cc(F)cc(F)c1)C(=O)N[C@H](C(=O)OC(C)(C)C)c1ccccc1", "note": "[DAPT, N-[N-(3,5-difluorophenacetyl)-L-alanyl]-S-phenylglycine t-butyl ester]", "values": [{"measurement": "Recoverin-positive cells produced (immunostaining of frozen section)", "setting": "[1]; day 49", "result": "about 5 fold"}, {"measurement": "ganglion cells (immunostaining of Brn3)", "setting": "[1]; day 49", "result": "produced"}, {"measurement": "GFP-expressing cells (fluorescence microscope) compared to no DAPT", "setting": "[1]; observed day 49", "result": "markedly produced"}, {"measurement": "ganglion cells (immunostaining of Brn3)", "setting": "[2]; fixed day 43", "result": "increased"}, {"measurement": "increase of Recoverin-positive cells (immunostaining of frozen section)", "setting": "[2]; fixed day 43", "result": "3- to 5 fold"}, {"measurement": "GFP-expressing cells (fluorescence microscope) compared to no DAPT", "setting": "[2]; observed day 41", "result": "markedly increased"}]}
{"compound": "CNC1CCC(N(Cc2cccc(-c3ccncc3)c2)C(=O)c2sc3ccccc3c2Cl)CC1", "note": "(stereo not shown) [SAG]", "values": [{"measurement": "optic-cup-like structure formation on aggregate", "setting": "[3]", "result": "a clear optic-cup-like structure was formed"}, {"measurement": "GFP-expressing cells (fluorescence microscopic observation)", "setting": "[4]; [5]", "result": "a very high number of GFP-expressing cells emerged"}, {"measurement": "proportion of the GFP-expressing cells (FACS)", "setting": "[4]; [5]", "result": "not less than 70%"}, {"measurement": "increase of proportion of GFP-expressing cells compared to Comparative Example 3", "setting": "[4]; Example 2: serum and 100 nM SAG added simultaneously, with 3 μM IWR1e and Matrigel", "result": "about 24 fold"}]}
{"compound": "O=C(Nc1cccc2cccnc12)c1ccc(N2C(=O)[C@@H]3[C@H](C2=O)[C@@H]2C=C[C@H]3C2)cc1", "note": "[IWR1e]", "values": [{"measurement": "GFP-expressing cells (fluorescence microscopic observation)", "setting": "[4]; 3 μM IWR1e in serum-free medium, Matrigel 1/100 from day 2, compared to Comparative Examples 1 and 2", "result": "clearly increased"}, {"measurement": "proportion of the GFP-expressing cells (FACS)", "setting": "[4]; 3 μM IWR1e, Matrigel, no serum (Comparative Example 3), day 18 of floating culture", "result": 3.2, "unit": "%"}]}
{"compound": "NC(=O)c1ccc(-c2nc(-c3ccc4c(c3)OCO4)c(-c3ccccn3)[nH]2)cc1", "note": "[SB431542]", "values": [{"measurement": "GFP-expressing cells (fluorescence microscopic observation)", "setting": "[4]; 10 μM SB431542 in serum-free medium, Matrigel 1/100 from day 2", "result": "somewhat found"}]}
